Measured values: article PMC7018514 (eLife, 2020)

Tests used:
human IMPDH2 [1] = molecular target: T1, human IMPDH2 (Homo sapiens, UniProt P12268); test: cryo-EM structure ([…] Å filament assembly interface); NAD+ saturation kinetics; assay type: binding
T1 construct: full-length hIMPDH2 (SUMO tag removed)

human IMPDH2 [2] = molecular target: T1, human IMPDH2; test: cryo-EM structures ([…] Å fully compressed filament segment; […] Å free octamer), plus GTP inhibition kinetics of purified enzyme; assay type: biochemical
human IMPDH2 [3] = molecular target: T2, human IMPDH2 (Homo sapiens, UniProt P12268, Y12A); test: NADH absorbance ([…] nm) activity assay with GTP dose-response; […] inhibited at […] GTP; assay type: biochemical
T2 construct: full-length hIMPDH2, non-assembling mutant
T2 sequence (P12268 2-514 Y12A): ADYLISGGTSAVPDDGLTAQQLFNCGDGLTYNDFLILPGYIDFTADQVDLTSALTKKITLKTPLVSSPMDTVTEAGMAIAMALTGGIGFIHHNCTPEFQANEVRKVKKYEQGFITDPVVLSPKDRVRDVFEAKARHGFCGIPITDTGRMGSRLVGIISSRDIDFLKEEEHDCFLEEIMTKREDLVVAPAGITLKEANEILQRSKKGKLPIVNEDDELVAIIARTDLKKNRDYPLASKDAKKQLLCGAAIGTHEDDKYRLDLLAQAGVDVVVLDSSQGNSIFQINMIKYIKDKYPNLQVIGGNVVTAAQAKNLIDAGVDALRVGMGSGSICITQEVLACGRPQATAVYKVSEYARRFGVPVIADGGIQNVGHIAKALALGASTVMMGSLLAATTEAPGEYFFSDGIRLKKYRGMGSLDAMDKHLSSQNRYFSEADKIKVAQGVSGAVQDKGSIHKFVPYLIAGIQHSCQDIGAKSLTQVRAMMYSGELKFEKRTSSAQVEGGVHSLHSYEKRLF

T1 sequence (P12268 2-514): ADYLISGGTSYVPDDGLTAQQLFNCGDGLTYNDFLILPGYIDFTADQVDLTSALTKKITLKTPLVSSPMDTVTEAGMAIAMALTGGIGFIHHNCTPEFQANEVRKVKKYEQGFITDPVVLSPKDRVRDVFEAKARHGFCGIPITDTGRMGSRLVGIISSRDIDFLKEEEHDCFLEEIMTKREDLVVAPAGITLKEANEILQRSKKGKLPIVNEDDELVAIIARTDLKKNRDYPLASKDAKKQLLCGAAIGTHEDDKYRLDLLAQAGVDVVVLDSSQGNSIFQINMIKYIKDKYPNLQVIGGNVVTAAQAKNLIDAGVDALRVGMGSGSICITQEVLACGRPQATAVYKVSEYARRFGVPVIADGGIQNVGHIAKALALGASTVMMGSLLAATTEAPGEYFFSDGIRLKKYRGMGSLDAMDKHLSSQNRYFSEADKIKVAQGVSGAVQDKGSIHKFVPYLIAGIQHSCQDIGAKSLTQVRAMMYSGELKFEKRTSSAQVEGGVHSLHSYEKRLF

IC50 (human IMPDH2 [2])	IC50 (human IMPDH2 [3])	SMILES	cryo-EM structure (3.0 Å filament assembly interface); NAD+ saturation kinetics (human IMPDH2 [1])
–	–	NC(=O)c1ccc[n+]([C@@H]2O[C@H](COP(=O)([O-])OP(=O)(O)OC[C@H]3O[C@@H](n4cnc5c(N)ncnc54)[C@H](O)[C@@H]3O)[C@@H](O)[C@H]2O)c1 [NAD+]	There is strong density in the both the IMP and NAD^+ binding sites.
> 2000 µM	< 2000 µM	Nc1nc2c(ncn2[C@@H]2O[C@H](COP(=O)(O)OP(=O)(O)OP(=O)(O)O)[C@@H](O)[C@H]2O)c(=O)[nH]1 [GTP]	–
